Source: patent US20260174829A1, “METHODS OF REDUCING TYPE 2 CYTOKINE-MEDIATED INFLAMMATION USING NEUROMEDIN PEPTIDES” (Rutgers, The State University of New Jersey, priority 2018, published 2026)

Experiments:
lung ILC2s = assay: Sort-purified lung ILC2 in vitro cultures with Nmb, IL-5/IL-13 ELISA; format: cell-based, mouse
Description: FIGS. 6A-6E. Nmb suppresses type 2 cytokine responses. (A), Nb-infected mice were treated with PBS or Nmb (i.t.) and ILC2s in the BAL were quantified. (B) Expression of IL-5 and IL-13 in the lungs of PBS or Nmb-treated mice was determined on day 7 post-Nb by Real-time PCR. (C) Eosinophils in the BAL were quantified and (D) worm burdens were determined on day 7 post-Nb infection. ILC2s were sort-purified from the lungs of control or baso-dep mice on day 7 post-Nb and cultured (O/N) with IL-2 and IL-7 in the presence or absence of Nmb and (E) IL-5 and IL-13 levels in culture supernatants were determined by ELISA. P values were determined by two-tailed Student's t-tests.
FIGS. 10A-10B. NMB inhibits type 2 cytokine production from IL-33 activated ILC2. ILC2s were sort-purified from the lungs of Nb-infected mice (day 7) and cultured with survival cytokines (IL-2, IL-7) and in the presence or absence of Nmb and/or IL-33. Following overnight culture, supernatants were tested for the presence of IL-5 (FIG. 10A) and IL-13 (FIG. 10B) by standard ELISA. Statistical comparisons were done using a Student's t-test.
Lung cells were isolated from the lungs of WT or basophil-depleted mice on day 7 post-N. brasiliensis infection. ILC populations (CD45^+Lin^−CD90^+CD127^+) were sort-purified and 10,000 cells were cultured in the presence of 100 ng/mL of IL-2, IL-7 and vehicle (PBS) or 10 μg/mL of Neuromedin B for 24 hours. IL-5 and IL-13 were quantified in cell-free supernatants by ELISA.
These studies illustrate that Nb-induced ILC2 responses are exaggerated in the absence of basophils. […] However, ILC2 responses are also known to be regulated by several other factors following a Nb challenge. Specifically, IL-33 is reported to be a critical regulator of lung ILC2 responses post-Nb infection (24). To address whether altered ILC2 activity in the absence of basophils is a result of reduced availability of IL-33, rather than alterations in NMB-NMBR signaling pathways, ILC2s were sort-purified from the lungs of Nb-infected mice (day 7) and cultured with survival cytokines (IL-2, IL-7) and/or IL-33 and NMB. Following overnight culture, supernatants were tested for the presence of IL-5 and IL-13 by standard ELISA. Statistical comparisons were done using a Student's t-test.

[1] = tested on: papain-induced allergic airway inflammation; assay: Papain-induced allergic airway inflammation, Nmb i.t.; format: in vivo, mouse; settings: papain-challenged mice, Nmb i.t. vs PBS, lung
Description: (§1) FIGS. 7A-7I. Nmb treatment is sufficient to suppress allergic airway inflammation. Mice challenged with papain were treated with PBS or Nmb (i.t.) and (A) Lung ILC2s, (B) IL-5+ and IL-13+ ILC2s, and (C) eosinophils were evaluated. […] Mesenteric lymph nodes (MLNs) were isolated on day 7 post-Nb and single cells suspensions were treated with anti-CD3 and anti-CD28 in the presence or absence of Nmb for 48 hours and (E), IL-5 and (F) IL-13 were quantified in cell-free supernatants by ELISA. (F-I), Modified versions of Nmb (see Table 2) were tested for their ability to alter IL-5 and IL-13 production from anti-CD3 and anti-CD28 MLN cells isolated on day 7 post-Nb. P values were determined by two-tailed Student's t-tests. Blue asterisks represent comparisons between media treated controls and native Nmb. Red asterisks represent comparisons between media treated controls and modified version of Nmb as described in Table 2. (*,p<0.05), (**,p<0.01), (***,p<0.001) or (F-I).
A well-established model of papain-induced allergic airway inflammation known to be dependent on ILC2s was utilized (19, 20). Mice treated with papain presented with elevated percentages of ILC2s (FIG. 7A), elevated expression of IL-5 and IL-13 by ILC2s (FIG. 7B) and lung eosinophilia (FIG. 7C). […] Thus, Nmb negatively regulate ILC2 responses both in vivo and in vitro.

TH2 cells = assay: Anti-CD3/anti-CD28 stimulated lymph node cells (day 7 post-Nb), IL-5/IL-13 ELISA; format: cell-based, mouse; settings: LN cells day 7 post-Nb, anti-CD3 and anti-CD28, 48 hours, vs media control
Description: as §1
FIGS. 8A-8B. Mesenteric lymph nodes (MLNs) were isolated on day 7 post-Nb and single cells suspensions were treated with anti-CD3 and anti-CD28 in the presence or absence of native Nmb or modified versions of the peptide for 48 hours and (A), IL-5 and (B) IL-13 were quantified in cell-free supernatants by ELISA. P values were determined by two-tailed Student's t-tests. Blue asterisks represent comparisons between media treated controls and native Nmb. Red asterisks represent comparisons between media treated controls and modified version of Nmb as described in Table 2. (*,p<0.05), (**,p<0.01), (***,p<0.001).
At the time points evaluated post-Nb, the majority of the type 2 cytokines are ILC2-derived (14) and any effects Nmb is having on TH2 cell responses may be difficult to detect. To address this, lung-draining LNs were isolated on day 7 post-Nb and stimulated with anti-CD3 and -CD28 to activate T cells in both the presence of absence of recombinant Nmb. LN cells treated with anti-CD3 and -CD28 produced increased amounts of IL-5, and IL-13 (FIGS. 7D, 7E).
Thus, Nmb can be employed to reduce type 2 cytokine-mediated inflammation. Native Nmb is a 10-mer peptide (SEQ ID NO: 1) that operates via its ability to bind the Nmb receptor (15). This example describes the results of an alanine scan to systematically replace various residues of the Nmb with alanine (Table 2) and the resulting ability of the variant Nmb peptides to inhibit type 2 cytokine production by TH2 cells. Further, caps were added to the native form of Nmb (SEQ ID NO: 1) and its bioactivity monitored (FIG. 5A).

[2] = ILC2s day 7 post-Nb, IL-2 and IL-7, overnight, no IL-33, ELISA
[3] = ILC2s from basophil-deficient Nb-infected mice, overnight with IL-2 and IL-7, ELISA
[4] = ILC2s from basophil-sufficient Nb-infected mice, overnight with IL-2 and IL-7, ELISA

In the case of H2N-GNLWATGHFM-amide [Nmb], the “type 2 cytokines (IL-5 and IL-13) from IL-33 activated ILC2s” value (lung ILC2s; ILC2s day 7 post-Nb, IL-2, IL-7 and IL-33, overnight, ELISA) is reported as “significant reductions”, the “IL-5 production from ILC2s at steady-state” value (lung ILC2s; [2]) is reported as “significantly reduce” and the “IL-13 production from ILC2s at steady-state” value (lung ILC2s; [2]) is reported as “significantly reduce”. The “IL-5 production by ILC2s (significantly reduced or not)” value (lung ILC2s; [3]) was “not”, the “IL-13 production by ILC2s (significantly reduced or not)” value (lung ILC2s; [3]) was “not” and the “IL-5 production by ILC2s” value (lung ILC2s; [4]) was “significantly reduced”. The “IL-13 production by ILC2s” value (lung ILC2s; [4]) was “significantly reduced”, the “papain-induced ILC2 responses” value [1] was “sufficient to reduce” and the papain-induced eosinophilia [1] was “sufficient to reduce”. For the same substance, the “IL-5 production from activated TH2 cells” value (TH2 cells) was “significantly reduced”, the “IL-13 production from activated TH2 cells” value (TH2 cells) was “significantly reduced” and the “IL-5 production from activated TH2 cells” value (TH2 cells; listed as Native Nmb) was “significantly reduce”. The “IL-5 production from activated TH2 cells” value (TH2 cells; listed as native Nmb) was “sufficient to reduce” and the “IL-13 production from activated TH2 cells” value (TH2 cells; listed as native Nmb) was “sufficient to reduce”.
